{"source": "patent US20260250318A1", "about": "“COMPOSITIONS AND METHODS FOR CROSSING THE BLOOD BRAIN BARRIER” (VOYAGER THERAPEUTICS, INC., priority 2022, published 2026)", "key": {"[1]": {"test_system": "brains, heart, liver, muscle, and DRG of the NHPs", "assay": "Maturation of TTM-001 and TTM-002 capsids, NGS enrichment in NHP tissues", "type": "in vivo", "settings": "relative to AAV9 control", "in_short": "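Variants carry mutations within and flanking the loop IV peptide insert: positions 450–466 were triplet-randomized, while positions 449–466 received low-frequency point mutations. The combined pool went into two NHPs, and each peptide was scored by NGS enrichment ratio against AAV9.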"}, "brain": {"test_system": "brain", "assay": "Matured TTM-001 and TTM-002 variants, NGS enrichment in mouse brain", "type": "in vivo, mice", "settings": "relative to AAV9 control"}, "[2]": {"settings": "NGS fold-enrichment of matured AAV capsid variants, NHP brain, RNA"}, "[3]": {"settings": "NGS fold-enrichment, DRG of NHPs"}, "[4]": {"settings": "NGS fold-enrichment, RNA, brain of NHPs"}, "[5]": {"settings": "NGS fold-enrichment, heart of NHPs"}, "[6]": {"settings": "NGS fold-enrichment, liver DNA of NHPs"}, "[7]": {"settings": "NGS fold-enrichment, liver RNA of NHPs"}, "[8]": {"settings": "NGS fold-enrichment, muscle of NHPs"}, "[9]": {"settings": "NGS fold-enrichment, brain of mice"}, "[10]": {"settings": "NGS fold-enrichment of RNA, NHP brain"}, "[11]": {"settings": "NGS fold-enrichment, NHP liver DNA"}, "[12]": {"settings": "NGS fold-enrichment, NHP liver RNA"}, "[13]": {"settings": "NGS fold-enrichment, NHP muscle"}, "[14]": {"settings": "NGS fold-enrichment, mouse brain"}}, "data": [{"sequence": "KTINGSGSPHSKALMRQT", "values": [{"measurement": "Fold Enrichment relative to AAV9, Brain (NHP)", "setting": "[1]; [2]", "value": 57.234, "unit": "fold"}, {"measurement": "Fold Enrichment relative to AAV9, DRG (NHP)", "setting": "[1]; NHP DRG", "value": 0.060, "unit": "fold"}, {"measurement": "Fold Enrichment relative to AAV9, Heart (NHP)", "setting": "[1]; NHP heart", "value": 0.036, "unit": "fold"}, {"measurement": "Fold Enrichment relative to AAV9, Liver DNA (NHP)", "setting": "[1]; NHP liver, DNA", "value": 0.517, "unit": "fold"}, {"measurement": "Fold Enrichment relative to AAV9, Liver RNA (NHP)", "setting": "[1]; NHP liver, RNA", "value": 1.798, "unit": "fold"}, {"measurement": "Fold Enrichment relative to AAV9, Muscle (NHP)", "setting": "[1]; NHP muscle", "value": 0.100, "unit": "fold"}, {"measurement": "Fold Enrichment relative to AAV9, Brain (Mouse)", "setting": "brain; mouse brain", "value": 81.332, "unit": "fold"}]}, {"sequence": "KTDLKSGSPHSKAQNQQT", "values": [{"measurement": "Fold Enrichment relative to AAV9, DRG (NHP)", "setting": "[1]; [3]", "value": 0.000, "unit": "fold"}, {"measurement": "Fold Enrichment relative to AAV9, Brain (NHP)", "setting": "[1]; [4]", "value": 63.152, "unit": "fold"}, {"measurement": "Fold Enrichment relative to AAV9, Heart (NHP)", "setting": "[1]; [5]", "value": 0.000, "unit": "fold"}, {"measurement": "Fold Enrichment relative to AAV9, Liver DNA (NHP)", "setting": "[1]; [6]", "value": 0.377, "unit": "fold"}, {"measurement": "Fold Enrichment relative to AAV9, Liver RNA (NHP)", "setting": "[1]; [7]", "value": 0.285, "unit": "fold"}, {"measurement": "Fold Enrichment relative to AAV9, Muscle (NHP)", "setting": "[1]; [8]", "value": 0.012, "unit": "fold"}, {"measurement": "Fold Enrichment relative to AAV9, Brain (Mouse)", "setting": "brain; [9]", "value": 62.687, "unit": "fold"}]}, {"sequence": "KTVNGHDSPHKSLQNQQT", "values": [{"measurement": "Fold Enrichment relative to AAV9, Brain (NHP)", "setting": "[1]; [10]", "value": 112.925, "unit": "fold"}, {"measurement": "Fold Enrichment relative to AAV9, DRG (NHP)", "setting": "[1]; NGS fold-enrichment, NHP DRG", "value": 0.000, "unit": "fold"}, {"measurement": "Fold Enrichment relative to AAV9, Heart (NHP)", "setting": "[1]; NGS fold-enrichment, NHP heart", "value": 0.301, "unit": "fold"}, {"measurement": "Fold Enrichment relative to AAV9, Liver DNA (NHP)", "setting": "[1]; [11]", "value": 0.322, "unit": "fold"}, {"measurement": "Fold Enrichment relative to AAV9, Liver RNA (NHP)", "setting": "[1]; [12]", "value": 0.000, "unit": "fold"}, {"measurement": "Fold Enrichment relative to AAV9, Muscle (NHP)", "setting": "[1]; [13]", "value": 0.059, "unit": "fold"}, {"measurement": "Fold Enrichment relative to AAV9, Brain (Mouse)", "setting": "brain; [14]", "value": 16.726, "unit": "fold"}]}, {"sequence": "KTINGHDSPHKSGQSVPT", "values": [{"measurement": "Fold Enrichment relative to AAV9, Brain (NHP)", "setting": "[1]; [10]", "value": 77.840, "unit": "fold"}, {"measurement": "Fold Enrichment relative to AAV9, DRG (NHP)", "setting": "[1]; NGS fold-enrichment, NHP DRG", "value": 0.000, "unit": "fold"}, {"measurement": "Fold Enrichment relative to AAV9, Heart (NHP)", "setting": "[1]; NGS fold-enrichment, NHP heart", "value": 0.003, "unit": "fold"}, {"measurement": "Fold Enrichment relative to AAV9, Liver DNA (NHP)", "setting": "[1]; [11]", "value": 0.061, "unit": "fold"}, {"measurement": "Fold Enrichment relative to AAV9, Liver RNA (NHP)", "setting": "[1]; [12]", "value": 0.136, "unit": "fold"}, {"measurement": "Fold Enrichment relative to AAV9, Muscle (NHP)", "setting": "[1]; [13]", "value": 0.000, "unit": "fold"}, {"measurement": "Fold Enrichment relative to AAV9, Brain (Mouse)", "setting": "brain; [14]", "value": 6.768, "unit": "fold"}]}, {"sequence": "KTINGSGSPHSKAQAMHT", "values": [{"measurement": "Fold Enrichment relative to AAV9, DRG (NHP)", "setting": "[1]; [3]", "value": 0.000, "unit": "fold"}, {"measurement": "Fold Enrichment relative to AAV9, Brain (NHP)", "setting": "[1]; [4]", "value": 62.756, "unit": "fold"}, {"measurement": "Fold Enrichment relative to AAV9, Heart (NHP)", "setting": "[1]; [5]", "value": 0.000, "unit": "fold"}, {"measurement": "Fold Enrichment relative to AAV9, Liver DNA (NHP)", "setting": "[1]; [6]", "value": 0.393, "unit": "fold"}, {"measurement": "Fold Enrichment relative to AAV9, Liver RNA (NHP)", "setting": "[1]; [7]", "value": 0.976, "unit": "fold"}, {"measurement": "Fold Enrichment relative to AAV9, Muscle (NHP)", "setting": "[1]; [8]", "value": 0.010, "unit": "fold"}, {"measurement": "Fold Enrichment relative to AAV9, Brain (Mouse)", "setting": "brain; [9]", "value": 84.056, "unit": "fold"}]}, {"sequence": "KTSNESGSPHSKAQNHQT", "values": [{"measurement": "Fold Enrichment relative to AAV9, Brain (NHP)", "setting": "[1]; [10]", "value": 75.720, "unit": "fold"}, {"measurement": "Fold Enrichment relative to AAV9, DRG (NHP)", "setting": "[1]; [3]", "value": 0.000, "unit": "fold"}, {"measurement": "Fold Enrichment relative to AAV9, DRG (NHP)", "setting": "[1]; NGS fold-enrichment, NHP DRG", "value": 0.000, "unit": "fold"}, {"measurement": "Fold Enrichment relative to AAV9, Heart (NHP)", "setting": "[1]; NGS fold-enrichment, NHP heart", "value": 0.000, "unit": "fold"}, {"measurement": "Fold Enrichment relative to AAV9, Liver DNA (NHP)", "setting": "[1]; [11]", "value": 0.217, "unit": "fold"}, {"measurement": "Fold Enrichment relative to AAV9, Liver RNA (NHP)", "setting": "[1]; [12]", "value": 0.169, "unit": "fold"}, {"measurement": "Fold Enrichment relative to AAV9, Muscle (NHP)", "setting": "[1]; [13]", "value": 0.000, "unit": "fold"}, {"measurement": "Fold Enrichment relative to AAV9, Brain (NHP)", "setting": "[1]; [4]", "value": 75.720, "unit": "fold"}, {"measurement": "Fold Enrichment relative to AAV9, Heart (NHP)", "setting": "[1]; [5]", "value": 0.000, "unit": "fold"}, {"measurement": "Fold Enrichment relative to AAV9, Liver DNA (NHP)", "setting": "[1]; [6]", "value": 0.217, "unit": "fold"}, {"measurement": "Fold Enrichment relative to AAV9, Liver RNA (NHP)", "setting": "[1]; [7]", "value": 0.169, "unit": "fold"}, {"measurement": "Fold Enrichment relative to AAV9, Muscle (NHP)", "setting": "[1]; [8]", "value": 0.000, "unit": "fold"}, {"measurement": "Fold Enrichment relative to AAV9, Brain (Mouse)", "setting": "brain; [9]", "value": 70.590, "unit": "fold"}, {"measurement": "Fold Enrichment relative to AAV9, Brain (Mouse)", "setting": "brain; [14]", "value": 70.590, "unit": "fold"}]}, {"sequence": "KTEITSGSPHSKAQNQQT", "values": [{"measurement": "Fold Enrichment relative to AAV9, Brain (NHP)", "setting": "[1]; [10]", "value": 79.620, "unit": "fold"}, {"measurement": "Fold Enrichment relative to AAV9, DRG (NHP)", "setting": "[1]; [3]", "value": 0.000, "unit": "fold"}, {"measurement": "Fold Enrichment relative to AAV9, DRG (NHP)", "setting": "[1]; NGS fold-enrichment, NHP DRG", "value": 0.000, "unit": "fold"}, {"measurement": "Fold Enrichment relative to AAV9, Heart (NHP)", "setting": "[1]; NGS fold-enrichment, NHP heart", "value": 0.163, "unit": "fold"}, {"measurement": "Fold Enrichment relative to AAV9, Liver DNA (NHP)", "setting": "[1]; [11]", "value": 0.074, "unit": "fold"}, {"measurement": "Fold Enrichment relative to AAV9, Liver RNA (NHP)", "setting": "[1]; [12]", "value": 0.332, "unit": "fold"}, {"measurement": "Fold Enrichment relative to AAV9, Muscle (NHP)", "setting": "[1]; [13]", "value": 0.000, "unit": "fold"}, {"measurement": "Fold Enrichment relative to AAV9, Brain (NHP)", "setting": "[1]; [4]", "value": 79.620, "unit": "fold"}, {"measurement": "Fold Enrichment relative to AAV9, Heart (NHP)", "setting": "[1]; [5]", "value": 0.163, "unit": "fold"}, {"measurement": "Fold Enrichment relative to AAV9, Liver DNA (NHP)", "setting": "[1]; [6]", "value": 0.074, "unit": "fold"}, {"measurement": "Fold Enrichment relative to AAV9, Liver RNA (NHP)", "setting": "[1]; [7]", "value": 0.332, "unit": "fold"}, {"measurement": "Fold Enrichment relative to AAV9, Muscle (NHP)", "setting": "[1]; [8]", "value": 0.000, "unit": "fold"}, {"measurement": "Fold Enrichment relative to AAV9, Brain (Mouse)", "setting": "brain; [9]", "value": 76.686, "unit": "fold"}, {"measurement": "Fold Enrichment relative to AAV9, Brain (Mouse)", "setting": "brain; [14]", "value": 76.686, "unit": "fold"}]}, {"sequence": "KTEVTSGSPHSKAQNQQT", "values": [{"measurement": "Fold Enrichment relative to AAV9, Brain (NHP)", "setting": "[1]; [2]", "value": 54.663, "unit": "fold"}, {"measurement": "Fold Enrichment relative to AAV9, DRG (NHP)", "setting": "[1]; NHP DRG", "value": 0.000, "unit": "fold"}, {"measurement": "Fold Enrichment relative to AAV9, Heart (NHP)", "setting": "[1]; NHP heart", "value": 0.000, "unit": "fold"}, {"measurement": "Fold Enrichment relative to AAV9, Liver DNA (NHP)", "setting": "[1]; NHP liver, DNA", "value": 0.185, "unit": "fold"}, {"measurement": "Fold Enrichment relative to AAV9, Liver RNA (NHP)", "setting": "[1]; NHP liver, RNA", "value": 0.323, "unit": "fold"}, {"measurement": "Fold Enrichment relative to AAV9, Muscle (NHP)", "setting": "[1]; NHP muscle", "value": 0.000, "unit": "fold"}, {"measurement": "Fold Enrichment relative to AAV9, Brain (Mouse)", "setting": "brain; mouse brain", "value": 81.482, "unit": "fold"}]}]}
